# Assays:
# Type in all cases: in vivo, mouse
# NOTCH1 = NOTCH1 protein level in brain, capillary-based immunoassay; conditions: aged C57 female mice; 10 mg/kg, IP, 7 days
# Protocol: NOTCH1 protein level in cortex, FIG. 13A, and hippocampus, FIG. 13B, was decreased in aged 3xTg-AD female mice v. male counterparts. Treatment with specific PRMT4 specific inhibitor (TP-064, 30 mg/kg, 7 days, IP) or AAV knockdown of PRMT4 enhanced NOTCH1 protein level in cortex, […], and hippocampus, […], in aged 3xTg-AD female mice. Relative NOTCH1 protein (˜110 kDa) level was measured by capillary-based immunoassay and normalized to total protein. * p<0.05 v. control male mice evaluated by unpaired t-test in FIGS. 13A and 13B. * p<0.05 compared to C57, #p<0.05 compared to 3xTg-AD+TP-064, $p<0.05 compared to 3xTg-AD+AAV, evaluated by one-way ANOVA with Tukey's post-hoc analyses in FIGS. 13C and 13D.
# (§1) FIGS. 16A-16G show NOTCH1 inhibition (via crenigacestat) decreased ZO-1 and occluding and AAV knockdown of PRMT4 enhanced ZO-1 and occludin. […] C57 female mice. FIGS. 16B and 16C show crenigacestat (10 mg/kg, IP, 7 days) reduced NOTCH1 (110 kDa) protein level in the cortex and hippocampus of aged C57 female mice. AAV knockdown of PRMT4 increased NOTCH1 protein level. FIGS. 16D-16G show ZO-1 (220 kDa), and occludin (60 kDa) tight junctional proteins were decreased in the cortex and hippocampus in presence of NOTCH1 inhibitor in C57. PRMT4-AAV increased the expression of ZO-1 and occludin in aged 3xTg-AD female mice. Protein level was measured by capillary-based immunoassay and normalized to total protein. * p<0.05 compared to C57, #p<0.05 compared to 3xTg-AD, $p<0.05 compared to 3xTg-AD+AAV as evaluated by one-way ANOVA with Tukey's post-hoc analyses.
# Capillary-phoresis immunoassay via ProteinSimple®: Quantification of all protein targets was achieved using Simple Western analysis in a Jess™ apparatus per the manufacturer's protocol (ProteinSimple, Bio-techne, Minneapolis, MN). […] Following homogenization and centrifugation (10,000×g, 5 min, 4° C.), protein concentration was determined in tissue protein supernatant samples using DC Protein Assay (Cat. No. 5000112, Bio-Rad Laboratories, Hercules, California) according to manufacturer instructions. […] Antibody diluent (ProteinSimple, Bio-techne, Minneapolis, MN) was used for all antibody dilutions as follows: PRMT4 (1:50, RRID: AB_2068436), PRMT6 (1:100, Cell Signaling Technology cat. 14641), eNOS (1:200, RRID: AB_10850618), nNOS (1:100, RRID: AB_2152488), iNOS (1:100, RRID: AB_10000625), DDAH2 (1:50, RRID: AB_2640442) Antibodies were detected using HRP-conjugated secondary anti-rabbit, and -mouse. Relative protein levels were calculated by measuring the area under the peak of a chemiluminescent chromatogram and normalized to total capillary chemiluminescence for a given sample. […]
# ZO-1 = ZO-1 tight junction protein level in brain, capillary-based immunoassay; conditions: C57 mice; 10 mg/kg, IP, 7 days
# Protocol: as §1
# (§2) Capillary-phoresis immunoassay via ProteinSimple®: Quantification of all protein targets was achieved using Simple Western analysis in a Jess™ apparatus per the manufacturer's protocol (ProteinSimple, Bio-techne, Minneapolis, MN). […] Following homogenization and centrifugation (10,000×g, 5 min, 4° C.), protein concentration was determined in tissue protein supernatant samples using DC Protein Assay (Cat. No. 5000112, Bio-Rad Laboratories, Hercules, California) according to manufacturer instructions. […]
# occludin = experiment: Occludin tight junction protein level in brain, capillary-based immunoassay; conditions: C57 mice; 10 mg/kg, IP, 7 days
# Protocol: as §1, §2
# C57 mice = experiment: Neurovascular coupling: microvessel diameter, two-photon laser scanning microscopy, C57 mice; conditions: 10 mg/kg, 7 days, IP
smiles,measurement,setting,value
C[C@H](NC(=O)CCC(F)(F)F)C(=O)N[C@@H]1C(=O)N(CCO)c2ncccc2-c2ccccc21 [Crenigacestat],NOTCH1 protein level in cortex,NOTCH1,reduced
same,NOTCH1 protein level in hippocampus,NOTCH1,reduced
same,ZO-1 protein level in cortex,ZO-1,decreased
same,ZO-1 protein level in hippocampus,ZO-1,decreased
same,occludin protein level in cortex,occludin,decreased
same,occludin protein level in hippocampus,occludin,decreased
same,microvessel diameter,C57 mice,decrease

# — patent publication US20240238268A1, “TREATMENTS AND METHODS FOR TREATING ALZHEIMER'S DISEASE” (Board of Supervisors of Louisiana State University and …, priority 2021, published 2024)
